What all share (assay): Cytotoxicity assay (Borenfreund method, 48 h)
What all share (type): cell-based

In experiment [1] the test system is VERO. The conditions noted are these: Chlorocebus sabaeus, NA = no cytotoxic activity upto 100 µg/mL, read-out: Noncancer cells IC50, VERO. As to the method:
(§1) Four human cancer cell lines (SK-OV-3, SK-MEL, BT-549 and KB) and two noncancerous kidney cell lines (VERO and LLC-PK1) were measured in the in vitro cytotoxic study. Test samples were added on the cell lines with variable concentrations, followed by 48 h incubation. According to the Borenfreund method, the cell viability was determined at the end of incubation, using doxorubicin as a positive control.

Experiment [2] relates to SK-MEL. The conditions noted are these: Homo sapiens, NA = no cytotoxic activity upto 100 µg/mL, read-out: Cancer cells IC50, SK-MEL. As to the method: as §1
Experiment [3] has as its system LLC-PK11. Particulars: NA = no cytotoxic activity upto 100 µg/mL, read-out: Noncancer cells IC50, LLC-PK11. How it is done: as §1
The subject of experiment [4] is BT-549. Particulars: Homo sapiens, NA = no cytotoxic activity upto 100 µg/mL, read-out: Cancer cells IC50, BT-549. As to the method:
as §1

The test system of experiment [5] is KB. Particulars: Homo sapiens, NA = no cytotoxic activity upto 100 µg/mL, read-out: Cancer cells IC50, KB. How it is done: as §1
In experiment [6] the test system is SK-OV-3. Particulars: Homo sapiens, NA = no cytotoxic activity upto 100 µg/mL, read-out: Cancer cells IC50, SK-OV-3. As to the method:
as §1

As a reminder, the IC50 is the concentration needed to halve the response being measured.

Structures are written as SMILES. In brackets after ≈: the same amount, converted by molar mass.

On to `COc1cccc2c1C(=O)c1c(O)c3c(c(O)c1C2=O)C[C@@](O)(C(=O)CO)C[C@@H]3O[C@H]1C[C@H](N)[C@H](O)[C@H](C)O1` [Doxorubicin], for which the IC50 in experiment [1] was over 5 µg/mL; in experiment [2], 1.23 µg/mL (≈ 2.26 µM); in experiment [3], 0.85 µg/mL (≈ 1.56 µM); in experiment [4], 1.93 µg/mL (≈ 3.55 µM); in experiment [5] it was 1.85 µg/mL (≈ 3.4 µM); in experiment [6], 0.8 µg/mL (≈ 1.47 µM).

The values above are taken from paper PMC6444227, “Pharmacological Evaluation of Secondary Metabolites and Their Simultaneous Determination in the Arabian Medicinal Plant Plicosepalus curviflorus Using HPTLC Validated Method” (Journal of Analytical Methods in Chemistry, 2019).
